Laboratory results published in ChEMBL document CHEMBL5518181, “Studies of antibacterial activity (in vitro and in vivo) and mode of action for des-acyl tridecaptins (DATs)” (Eur J Med Chem, 2024).
Values after ≈ are worked out from the molar mass of the structure shown.

Tests used:
Klebsiella pneumoniae [1] = experiment: Antibacterial activity against wild-type Klebsiella pneumoniae ATCC 13883 assessed as inhibition of bacterial growth incubated for 18 hrs; format: functional; conditions: read-out: MIC100
Pseudomonas aeruginosa = experiment: Antibacterial activity against wild-type Pseudomonas aeruginosa PAO1 assessed as inhibition of bacterial growth incubated for 24 hrs; format: functional; conditions: read-out: MIC100
Escherichia coli [2] = experiment: Antibacterial activity against wild-type Escherichia coli ATCC 25922 assessed as inhibition of bacterial growth incubated for 18 hrs in presence of 50% heat inactivated human serum; format: functional; conditions: read-out: MIC100
Acinetobacter baumannii = experiment: Antibacterial activity against wild-type Acinetobacter baumannii ATCC 19606 assessed as inhibition of bacterial growth incubated for 20 hrs; format: functional; conditions: read-out: MIC100
Escherichia coli [3] = experiment: Antibacterial activity against Escherichia coli ATCC 25922 harboring hldE knock-out assessed as inhibition of bacterial growth incubated for 18 hrs; format: functional; conditions: read-out: MIC100
[4] = Hemolytic activity in human red blood cells at 400 ug/ml incubated for 45 mins by spectrophotometric analysis relative to control; format: toxicity, cell-based, Erythrocyte; conditions: red blood cells (erythrocytes), at 400 µg/mL, read-out: Activity
Escherichia coli [5] = experiment: Antibacterial activity against wild-type Escherichia coli ATCC 25922 assessed as inhibition of bacterial growth incubated for 18 hrs; format: functional; conditions: read-out: MIC100
Klebsiella pneumoniae [6] = experiment: Antibacterial activity against wild-type Klebsiella pneumoniae ATCC 13883 assessed as inhibition of bacterial growth incubated for 18 hrs in presence of 50% heat inactivated human serum; format: functional; conditions: read-out: MIC100
Staphylococcus aureus = experiment: Antibacterial activity against […] assessed as inhibition of bacterial growth incubated for 18 hrs; format: functional; conditions: ATCC 29213, read-out: MIC100
[7] = Hydrophobicity of compound assessed as %MeCN at peak elution by RP-HPLC analysis; format: physicochemical
[8] = Cytotoxicity against human HepG2 cells incubated for 40 hrs by celltiter-glo luminescent cell viability assay; format: toxicity, cell-based
Escherichia coli [9] = experiment: Antibacterial activity against Escherichia coli ATCC 25922 harboring tolC knock-out assessed as inhibition of bacterial growth incubated for 18 hrs; format: functional; conditions: read-out: MIC100

| SMILES | MIC (Klebsiella pneumoniae [1]) | MIC (Pseudomonas aeruginosa) | MIC (Escherichia coli [2]) | MIC (Acinetobacter baumannii) | MIC (Escherichia coli [3]) | hemolysis at 0.75 h, 400 ug/ml [4] | MIC (Escherichia coli [5]) | MIC (Klebsiella pneumoniae [6]) | MIC (Staphylococcus aureus) | MeCN percentage at peak elution [7] | IC50 at 40 h [8] | MIC (Escherichia coli [9]) |
| --- | --- | --- | --- | --- | --- | --- | --- | --- | --- | --- | --- | --- |
| CC[C@@H](C)[C@@H](NC(=O)[C@@H](NC(=O)[C@H](CCC(=O)O)NC(=O)[C@H](Cc1ccccc1)NC(=O)[C@@H](CCN)NC(=O)[C@H](CCN)NC(=O)[C@H](CO)NC(=O)[C@@H](Cc1c[nH]c2ccccc12)NC(=O)[C@@H](CO)NC(=O)CNC(=O)[C@@H](CCN)NC(=O)[C@H](N)C(C)C)C(C)C)C(=O)N[C@@H](C)C(=O)O | 64 µg/mL (≈ 45.9 µM) | > 64 µg/mL | 8 µg/mL | 64 µg/mL (≈ 45.9 µM) | 8 µg/mL (≈ 5.74 µM) | 5.5% | 64 µg/mL (≈ 45.9 µM) | 8 µg/mL | > 64 µg/mL | 39.5% | 91 µg/mL (≈ 65.3 µM) | 4 µg/mL (≈ 2.87 µM) |
| CC[C@H](C)[C@@H](NC(=O)[C@H](CC1CCCCC1)NC(=O)[C@H](CCC(=O)O)NC(=O)[C@H](Cc1ccccc1)NC(=O)[C@@H](CCN)NC(=O)[C@H](CCN)NC(=O)[C@H](CO)NC(=O)[C@@H](Cc1c[nH]c2ccccc12)NC(=O)[C@@H](CO)NC(=O)CNC(=O)[C@@H](CCN)NC(=O)[C@H](N)C(C)C)C(=O)N[C@@H](C)C(=O)O | 8 µg/mL (≈ 5.52 µM) | > 64 µg/mL | 16 µg/mL | 64 µg/mL (≈ 44.2 µM) | 2 µg/mL (≈ 1.38 µM) | 59.1% | 8 µg/mL (≈ 5.52 µM) | 4 µg/mL | > 64 µg/mL | 43.9% | 46 µg/mL (≈ 31.8 µM) | < 0.125 µg/mL |
| CC[C@H](C)[C@@H](NC(=O)[C@@H](NC(=O)[C@H](CCC(=O)O)NC(=O)[C@H](Cc1ccccc1)NC(=O)[C@@H](C)NC(=O)[C@H](CCN)NC(=O)[C@H](CO)NC(=O)[C@@H](Cc1c[nH]c2ccccc12)NC(=O)[C@@H](CO)NC(=O)CNC(=O)[C@@H](CCN)NC(=O)[C@H](NC(=O)[C@H](C)N)C(C)C)C(C)C)C(=O)N[C@@H](C)C(=O)O | 16 µg/mL (≈ 11.1 µM) | > 64 µg/mL | 8 µg/mL | 64 µg/mL (≈ 44.5 µM) | 8 µg/mL (≈ 5.57 µM) | 4.5% | 16 µg/mL (≈ 11.1 µM) | 16 µg/mL | > 64 µg/mL | 45.9% | 35 µg/mL (≈ 24.4 µM) | 8 µg/mL (≈ 5.57 µM) |
| CC[C@H](C)[C@@H](NC(=O)[C@@H](NC(=O)[C@H](CCC(=O)O)NC(=O)[C@H](Cc1ccccc1)NC(=O)[C@@H](CCN)NC(=O)[C@H](CCN)NC(=O)[C@H](CO)NC(=O)[C@@H](Cc1c[nH]c2ccccc12)NC(=O)[C@@H](CO)NC(=O)CNC(=O)[C@@H](CCN)NC(=O)[C@H](NC(=O)[C@@H](C)N)C(C)C)C(C)C)C(=O)N[C@@H](C)C(=O)O | 2 µg/mL (≈ 1.36 µM) | 32 µg/mL (≈ 21.8 µM) | 4 µg/mL | > 64 µg/mL | 2 µg/mL (≈ 1.36 µM) | 2.3% | 4 µg/mL (≈ 2.73 µM) | 4 µg/mL | > 64 µg/mL | 39.6% | 98 µg/mL (≈ 66.9 µM) | 4 µg/mL (≈ 2.73 µM) |
| CC[C@H](C)[C@@H](NC(=O)[C@@H](NC(=O)[C@H](C)NC(=O)[C@H](Cc1ccccc1)NC(=O)[C@@H](CCN)NC(=O)[C@H](CCN)NC(=O)[C@H](CO)NC(=O)[C@@H](Cc1c[nH]c2ccccc12)NC(=O)[C@@H](CO)NC(=O)CNC(=O)[C@@H](CCN)NC(=O)[C@H](NC(=O)[C@H](C)N)C(C)C)C(C)C)C(=O)N[C@@H](C)C(=O)O | 16 µg/mL (≈ 11.4 µM) | 64 µg/mL (≈ 45.5 µM) | 4 µg/mL | > 64 µg/mL | 2 µg/mL (≈ 1.42 µM) | 0.3% | 8 µg/mL (≈ 5.68 µM) | 32 µg/mL | > 64 µg/mL | 40.1% | 67 µg/mL (≈ 47.6 µM) | 8 µg/mL (≈ 5.68 µM) |
| CC[C@H](C)[C@@H](NC(=O)[C@@H](NC(=O)[C@H](CCC(=O)O)NC(=O)[C@H](Cc1ccc(-c2ccccc2)cc1)NC(=O)[C@@H](CCN)NC(=O)[C@H](CCN)NC(=O)[C@H](CO)NC(=O)[C@@H](Cc1c[nH]c2ccccc12)NC(=O)[C@@H](CO)NC(=O)CNC(=O)[C@@H](CCN)NC(=O)[C@H](N)C(C)C)C(C)C)C(=O)N[C@@H](C)C(=O)O | 4 µg/mL (≈ 2.72 µM) | 64 µg/mL (≈ 43.5 µM) | – | > 64 µg/mL | 2 µg/mL (≈ 1.36 µM) | 24.5% | 8 µg/mL (≈ 5.44 µM) | 4 µg/mL | > 64 µg/mL | – | 23 µg/mL (≈ 15.6 µM) | < 0.125 µg/mL |
| CC(C)[C@H](NC(=O)[C@H](CCC(=O)O)NC(=O)[C@H](Cc1ccccc1)NC(=O)[C@@H](CCN)NC(=O)[C@H](CCN)NC(=O)[C@H](CO)NC(=O)[C@@H](Cc1c[nH]c2ccccc12)NC(=O)[C@@H](CO)NC(=O)CNC(=O)[C@@H](CCN)NC(=O)[C@H](NC(=O)[C@H](C)N)C(C)C)C(=O)N[C@H](C)C(=O)N[C@@H](C)C(=O)O | 32 µg/mL (≈ 22.5 µM) | 64 µg/mL (≈ 45 µM) | 32 µg/mL | > 64 µg/mL | 8 µg/mL (≈ 5.62 µM) | 5% | 64 µg/mL (≈ 45 µM) | 16 µg/mL | > 64 µg/mL | 37.7% | 47 µg/mL (≈ 33 µM) | 32 µg/mL (≈ 22.5 µM) |
| CC[C@H](C)[C@@H](NC(=O)[C@@H](NC(=O)[C@H](CCC(=O)O)NC(=O)[C@H](Cc1ccccc1)NC(=O)[C@@H](CCN)NC(=O)[C@H](CCN)NC(=O)[C@H](CO)NC(=O)[C@@H](Cc1c[nH]c2ccccc12)NC(=O)[C@@H](CO)NC(=O)CNC(=O)[C@@H](CN)NC(=O)[C@H](NC(=O)[C@H](C)N)C(C)C)C(C)C)C(=O)N[C@@H](C)C(=O)O | > 64 µg/mL | – | – | – | – | 0% | > 64 µg/mL | – | – | – | > 170 µg/mL | – |
| CC[C@H](C)[C@@H](NC(=O)[C@@H](NC(=O)[C@H](CCC(=O)O)NC(=O)[C@H](C)NC(=O)[C@@H](CCN)NC(=O)[C@H](CCN)NC(=O)[C@H](CO)NC(=O)[C@@H](Cc1c[nH]c2ccccc12)NC(=O)[C@@H](CO)NC(=O)CNC(=O)[C@@H](CCN)NC(=O)[C@H](N)C(C)C)C(C)C)C(=O)N[C@@H](C)C(=O)O | 64 µg/mL (≈ 48.5 µM) | – | – | – | – | 2.5% | 64 µg/mL (≈ 48.5 µM) | – | – | – | > 170 µg/mL | – |
| CC[C@H](C)[C@@H](NC(=O)[C@@H](NC(=O)[C@H](CCC(=O)O)NC(=O)[C@H](Cc1c[nH]c2ccccc12)NC(=O)[C@@H](CCN)NC(=O)[C@H](CCN)NC(=O)[C@H](CO)NC(=O)[C@@H](Cc1c[nH]c2ccccc12)NC(=O)[C@@H](CO)NC(=O)CNC(=O)[C@@H](CCN)NC(=O)[C@H](N)C(C)C)C(C)C)C(=O)N[C@@H](C)C(=O)O | 8 µg/mL (≈ 5.58 µM) | – | – | – | – | 43.7% | 16 µg/mL (≈ 11.2 µM) | – | – | – | > 170 µg/mL | – |
| CC[C@H](C)[C@@H](NC(=O)[C@@H](NC(=O)[C@H](CCC(=O)O)NC(=O)[C@H](Cc1ccccc1)NC(=O)[C@@H](CCN)NC(=O)[C@H](CCN)NC(=O)[C@H](CO)NC(=O)[C@@H](Cc1c[nH]c2ccccc12)NC(=O)[C@@H](CO)NC(=O)CNC(=O)[C@@H](CCN)NC(=O)[C@@H](C)N)C(C)C)C(=O)N[C@@H](C)C(=O)O | > 64 µg/mL | – | – | – | – | 6.4% | > 64 µg/mL | – | – | – | 131 µg/mL (≈ 95.9 µM) | – |
| CC[C@H](C)[C@@H](NC(=O)[C@@H](NC(=O)[C@H](CCC(=O)O)NC(=O)[C@H](Cc1ccccc1)NC(=O)[C@@H](CCN)NC(=O)[C@H](CCN)NC(=O)[C@H](CO)NC(=O)[C@@H](Cc1c[nH]c2ccccc12)NC(=O)[C@@H](CO)NC(=O)[C@H](CC(=O)O)NC(=O)[C@@H](CCN)NC(=O)[C@H](N)C(C)C)C(C)C)C(=O)N[C@@H](C)C(=O)O | > 64 µg/mL | 64 µg/mL (≈ 44.1 µM) | 64 µg/mL | > 64 µg/mL | – | 0% | > 64 µg/mL | > 64 µg/mL | > 64 µg/mL | 37.8% | 13 µg/mL (≈ 8.95 µM) | – |
